≈ marks a conversion by molar mass, not a printed value.
Tests used:
Format in all cases: cell-based
[1] = tested on: HSF normal human skin fibroblast; experiment: MTT cytotoxicity assay on normal skin fibroblasts; conditions: for SI (selectivity index), HSF: IC50 normal cells (HSF) / IC50 HSF
Experimental: (§1) Cells (HeLa, cervical cancer cells; MDA-MB-231, breast cancer cells; A375, skin cancer cells; A549, lung cancer cells; and HSF, normal skin fibroblasts cells) were supplied from Nawah Scientific (Cairo, Egypt). The cells were grown in DMEM medium supplemented with 10% fetal bovine serum (Gibco, Life Technologies Inc., UK) with 1% penicillin/streptomycin solution (Gibco). Cells were maintained at 37°C with 5% CO2.
(§2) MTT in vitro cytotoxic assay assesses the metabolic activity of viable cells through the reduction of the water-soluble yellow dye by mitochondrial succinate dehydrogenase into the insoluble purple formazan. In brief, cyanochalcone derivatives were dissolved in 100% dimethyl sulphoxide (DMSO, Serva, Heidelberg, Germany) and incubated with cells at the desired concentrations (0, 6.25, 12.5, 25, 50, 100, and 200 μM) for 48 h with the corresponding vehicle as control. 5-Florouracil (5FU) was used as a positive control. Following incubation, old media were discarded and MTT solution (50 μl, 0.5 mg/ml) was added. After 4 h of incubation, the insoluble formed formazan was dissolved in DMSO (100 μl) with a shaking plate for 15 min in a dark place. The absorbance readings were taken at 570 nm by an ELISA reader. Relative cell viability was calculated as a percentage of control untreated cells. The assay was done in four replicates. The dose–response curve was plotted using GraphPad Prism 8, and the values of IC50 (half-maximal inhibitory concentration) were determined using non-linear regression analysis. Finally, the selectivity index was calculated by dividing the IC50 for normal cells by the IC50 of cancer cells.
(§3) To evaluate the potential usefulness of the Schiff base ligand (H2L) and the reported complexes (Fe, Zn, Cd, Pt) as antitumor agents, five human cell lines (normal Cells; HSF, human colorectal cancer cell line; HCT119, liver carcinoma cell line; HEPG2, human triple-negative breast cancer; MDA, human lung cancer cell line; A549) were treated by the compounds and compared with cis-platin activity as a standard. The IC50 values (concentration that produces 50% inhibition of cell growth) and selectivity index of the H2L ligand, the metal complexes, and cis-platin were tabulated in Table 4.

[2] = tested on: HCT119 (Human Colorectal cancer cell line); experiment: MTT cytotoxicity assay on colorectal cancer cells; conditions: for SI (selectivity index), HCT119: IC50 normal cells (HSF) / IC50 HCT119
Experimental: as §1, §2, §3

[3] = tested on: HepG2 (Human Liver cancer cell line); experiment: MTT cytotoxicity assay on liver cancer cells; conditions: for SI (selectivity index), HEPG2: IC50 normal cells (HSF) / IC50 HEPG2
Experimental: as §1, §2, §3

[4] = tested on: MDA (Human Breast cancer cell line); experiment: MTT cytotoxicity assay on triple-negative breast cancer cells; conditions: for SI (selectivity index), MDA: IC50 normal cells (HSF) / IC50 MDA
Experimental: as §1, §2, §3

[5] = tested on: A549 (Human Lung cancer cell line); experiment: MTT cytotoxicity assay on lung cancer cells; conditions: for SI (selectivity index), A549: IC50 normal cells (HSF) / IC50 A549
Experimental: as §1, §2, §3

[6] = HSF normal skin fibroblasts, MTT, 48 h
[7] = HCT119 colorectal cancer cells (HCT116 in abstract), MTT, 48 h
[8] = HEPG2 liver carcinoma cells, MTT, 48 h
[9] = MDA triple-negative breast cancer cells, MTT, 48 h
[10] = A549 lung cancer cells, MTT, 48 h

## CC(=O)[O-].CC(=O)[O-].[Cd+2].[Cd+2].[O-]c1ccc2ccccc2c1C=NN=C(O)Cc1ccccc1.[O-]c1ccc2ccccc2c1C=NN=C(O)Cc1ccccc1 [Cd complex]
[1]; [6]
  IC50 (HSF): 5.24 µg/mL
[1]
  SI (selectivity index), HSF: 1.00
[2]; [7]
  IC50 (HCT119): 0.329 µg/mL
[2]
  SI (selectivity index), HCT119: 15.93
[3]; [8]
  IC50 (HEPG2): 4.16 µg/mL
[3]
  SI (selectivity index), HEPG2: 1.26
[4]
  SI (selectivity index), MDA: 0.20
[4]; [9]
  IC50 (MDA): 25.7 µg/mL
[5]; [10]
  IC50 (A549): 56.23 µg/mL
[5]
  SI (selectivity index), A549: 0.09

## N.N.[Cl][Pt][Cl] [Cisplatin, reference compound]
[1]; [6]
  IC50 (HSF): 11.07 µg/mL
[1]
  SI (selectivity index), HSF: 1.00
[2]; [7]
  IC50 (HCT119): 2.25 µg/mL
[2]
  SI (selectivity index), HCT119: 4.92
[3]; [8]
  IC50 (HEPG2): 3.42 µg/mL
[3]
  SI (selectivity index), HEPG2: 3.24
[4]
  SI (selectivity index), MDA: 3.45
[4]; [9]
  IC50 (MDA): 3.21 µg/mL
[5]; [10]
  IC50 (A549): 2.73 µg/mL
[5]
  SI (selectivity index), A549: 4.05

## O=C(Cc1ccccc1)NN=Cc1c([O-])ccc2ccccc12.O=C(Cc1ccccc1)NN=Cc1c([O-])ccc2ccccc12.[Fe+2] [Fe complex]
[1]; [6]
  IC50 (HSF): 15.84 µg/mL
[1]
  SI (selectivity index), HSF: 1.00
[2]; [7]
  IC50 (HCT119): 64.01 µg/mL
[2]
  SI (selectivity index), HCT119: 0.25
[3]; [8]
  IC50 (HEPG2): 40.73 µg/mL
[3]
  SI (selectivity index), HEPG2: 0.39
[4]
  SI (selectivity index), MDA: 2.09
[4]; [9]
  IC50 (MDA): 7.58 µg/mL
[5]; [10]
  IC50 (A549): 95.49 µg/mL
[5]
  SI (selectivity index), A549: 0.17

## O=C(Cc1ccccc1)NN=Cc1c(O)ccc2ccccc12 [H2L, Nʹ-((2-hydroxynaphthalen-1-yl)methylene)-2-phenylacetohydrazide]
[1]; Homo sapiens, Skin fibroblast, HSF normal skin fibroblasts, MTT, 48 h
  IC50: 91.2 µg/mL (≈ 300 µM)
[1]
  SI (selectivity index), HSF: 1.00
[2]; Homo sapiens, HCT-116, HCT119 colorectal cancer cells (HCT116 in abstract), MTT, 48 h
  IC50: 285 µg/mL (≈ 936 µM)
[2]
  SI (selectivity index), HCT119: 0.32
[3]; Homo sapiens, HEPG2 liver carcinoma cells, MTT, 48 h
  IC50: 31.6 µg/mL (≈ 104 µM)
[3]
  SI (selectivity index), HEPG2: 2.88
[4]; Homo sapiens, MDA triple-negative breast cancer cells, MTT, 48 h
  IC50: 25.1 µg/mL (≈ 82.5 µM)
[4]
  SI (selectivity index), MDA: 3.63
[5]; Homo sapiens, A549 lung cancer cells, MTT, 48 h
  IC50: 25.1 µg/mL (≈ 82.5 µM)
[5]
  SI (selectivity index), A549: 3.63

## C1=[N+]2N=C(Cc3ccccc3)[O][Zn-2]23[O+](c2ccc4ccccc4c21)[Zn-2]12[O]C(Cc4ccccc4)=N[N+]1=Cc1c(ccc4ccccc14)[O+]32.CC(=O)O.CC(=O)O (stereo not shown) [Zn complex]
[1]
  SI (selectivity index), HSF: 1.00
[3]; [8]
  IC50 (HEPG2): 32.35 µg/mL
[4]; [9]
  IC50 (MDA): 89.12 µg/mL
